Measurements reported in the kinase profiling compilation of Christmann-Franck et al. (2016).
pKd: −log10 of the molar value.

How the values were obtained:
Assay in all cases: KINOMEscan competition binding
STK25 (human) = STK25 (human) (UniProt O00506)
FYN (human) = FYN (human) (UniProt P06241)
INSRR (human) = INSRR (human) (UniProt P14616)
IKBKB (human) = IKBKB (human) (UniProt O14920)
NTRK3 (human) = NTRK3 (human) (UniProt Q16288)
RAF1 (human) = RAF1 (human) (UniProt P04049)
HIPK2 (human) = HIPK2 (human) (UniProt Q9H2X6)
BMP2K (human) = BMP2K (human) (UniProt Q9NSY1)
PTK2B (human) = PTK2B (human) (UniProt Q14289)
AURKC (human) = AURKC (human) (UniProt Q9UQB9)
TESK1 (human) = TESK1 (human) (UniProt Q15569)
EPHB3 (human) = EPHB3 (human) (UniProt P54753)
NEK5 (human) = NEK5 (human) (UniProt Q6P3R8)
RPS6KA6 KD2 (human) = RPS6KA6 KD2 (human) (UniProt Q9UK32)
PDGFRA (human) = PDGFRA (human) (UniProt P16234)
[1] = target: JAK1 JH2 pseudokinase (human) (UniProt P23458)
CLK1 (human) = CLK1 (human) (UniProt P49759)
MINK1 (human) = MINK1 (human) (UniProt Q8N4C8)
CDC42BPG (human) = CDC42BPG (human) (UniProt Q6DT37)
[2] = target: PIK3CA (human), P42336 [E545K]
YES1 (human) = YES1 (human) (UniProt P07947)
ERN1 (human) = ERN1 (human) (UniProt O75460)
EIF2AK2 (human) = EIF2AK2 (human) (UniProt P19525)
IRAK1 (human) = IRAK1 (human) (UniProt P51617)
HCK (human) = HCK (human) (UniProt P08631)
AURKB (human) = AURKB (human) (UniProt Q96GD4)
PRKD2 (human) = PRKD2 (human) (UniProt Q9BZL6)
TXK (human) = TXK (human) (UniProt P42681)
TNK2 (human) = TNK2 (human) (UniProt Q07912)
FGR (human) = FGR (human) (UniProt P09769)
FGFR3 (human) = FGFR3 (human) (UniProt P22607)
ADCK4 (human) = ADCK4 (human) (UniProt Q96D53)
NLK (human) = NLK (human) (UniProt Q9UBE8)
TAOK2 (human) = TAOK2 (human) (UniProt Q9UL54)
TNNI3K (human) = TNNI3K (human) (UniProt Q59H18)
LIMK2 (human) = LIMK2 (human) (UniProt P53671)
PRKD3 (human) = PRKD3 (human) (UniProt O94806)
CDC42BPB (human) = CDC42BPB (human) (UniProt Q9Y5S2)
MAP2K3 (human) = MAP2K3 (human) (UniProt P46734)
CHEK2 (human) = CHEK2 (human) (UniProt O96017)
Sequence of CHEK2 (human) (O96017 whole entry, looked up): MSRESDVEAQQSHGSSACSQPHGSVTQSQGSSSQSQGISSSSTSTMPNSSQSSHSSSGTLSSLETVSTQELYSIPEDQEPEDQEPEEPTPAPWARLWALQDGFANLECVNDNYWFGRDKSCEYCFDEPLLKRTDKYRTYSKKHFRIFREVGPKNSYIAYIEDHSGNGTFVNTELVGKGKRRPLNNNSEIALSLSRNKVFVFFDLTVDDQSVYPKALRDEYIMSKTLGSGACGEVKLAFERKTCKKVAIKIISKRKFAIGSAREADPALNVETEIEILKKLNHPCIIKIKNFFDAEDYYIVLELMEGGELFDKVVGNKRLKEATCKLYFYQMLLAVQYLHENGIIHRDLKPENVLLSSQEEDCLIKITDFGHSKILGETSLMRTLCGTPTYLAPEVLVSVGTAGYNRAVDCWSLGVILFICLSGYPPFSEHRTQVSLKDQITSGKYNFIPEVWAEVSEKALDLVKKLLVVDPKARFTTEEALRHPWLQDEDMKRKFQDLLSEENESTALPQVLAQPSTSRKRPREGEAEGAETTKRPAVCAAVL

Sequence of PRKD3 (human) (O94806 whole entry, looked up): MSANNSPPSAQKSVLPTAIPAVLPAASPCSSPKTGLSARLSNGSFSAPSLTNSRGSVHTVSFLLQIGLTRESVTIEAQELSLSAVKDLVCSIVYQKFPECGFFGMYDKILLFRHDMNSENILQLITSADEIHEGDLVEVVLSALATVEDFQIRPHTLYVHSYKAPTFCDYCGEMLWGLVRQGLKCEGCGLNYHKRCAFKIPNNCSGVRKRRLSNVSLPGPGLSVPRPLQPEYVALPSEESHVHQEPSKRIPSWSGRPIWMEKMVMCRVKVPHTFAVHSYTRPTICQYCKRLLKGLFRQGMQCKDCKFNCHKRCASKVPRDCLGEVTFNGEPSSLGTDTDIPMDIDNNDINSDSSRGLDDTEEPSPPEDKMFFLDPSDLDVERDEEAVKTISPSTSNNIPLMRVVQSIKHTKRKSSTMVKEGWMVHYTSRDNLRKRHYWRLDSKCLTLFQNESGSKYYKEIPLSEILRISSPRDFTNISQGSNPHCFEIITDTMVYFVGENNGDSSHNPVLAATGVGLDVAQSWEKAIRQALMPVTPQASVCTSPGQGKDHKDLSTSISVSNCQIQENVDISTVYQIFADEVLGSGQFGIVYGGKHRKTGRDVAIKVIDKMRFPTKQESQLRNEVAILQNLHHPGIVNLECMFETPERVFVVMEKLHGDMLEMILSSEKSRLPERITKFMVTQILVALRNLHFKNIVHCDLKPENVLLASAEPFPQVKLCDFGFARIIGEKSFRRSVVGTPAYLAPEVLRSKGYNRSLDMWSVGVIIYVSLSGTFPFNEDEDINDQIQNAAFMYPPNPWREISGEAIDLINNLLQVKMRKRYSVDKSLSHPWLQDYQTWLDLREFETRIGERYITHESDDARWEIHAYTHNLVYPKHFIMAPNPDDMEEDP
Sequence of CDC42BPB (human) (Q9Y5S2 whole entry, looked up): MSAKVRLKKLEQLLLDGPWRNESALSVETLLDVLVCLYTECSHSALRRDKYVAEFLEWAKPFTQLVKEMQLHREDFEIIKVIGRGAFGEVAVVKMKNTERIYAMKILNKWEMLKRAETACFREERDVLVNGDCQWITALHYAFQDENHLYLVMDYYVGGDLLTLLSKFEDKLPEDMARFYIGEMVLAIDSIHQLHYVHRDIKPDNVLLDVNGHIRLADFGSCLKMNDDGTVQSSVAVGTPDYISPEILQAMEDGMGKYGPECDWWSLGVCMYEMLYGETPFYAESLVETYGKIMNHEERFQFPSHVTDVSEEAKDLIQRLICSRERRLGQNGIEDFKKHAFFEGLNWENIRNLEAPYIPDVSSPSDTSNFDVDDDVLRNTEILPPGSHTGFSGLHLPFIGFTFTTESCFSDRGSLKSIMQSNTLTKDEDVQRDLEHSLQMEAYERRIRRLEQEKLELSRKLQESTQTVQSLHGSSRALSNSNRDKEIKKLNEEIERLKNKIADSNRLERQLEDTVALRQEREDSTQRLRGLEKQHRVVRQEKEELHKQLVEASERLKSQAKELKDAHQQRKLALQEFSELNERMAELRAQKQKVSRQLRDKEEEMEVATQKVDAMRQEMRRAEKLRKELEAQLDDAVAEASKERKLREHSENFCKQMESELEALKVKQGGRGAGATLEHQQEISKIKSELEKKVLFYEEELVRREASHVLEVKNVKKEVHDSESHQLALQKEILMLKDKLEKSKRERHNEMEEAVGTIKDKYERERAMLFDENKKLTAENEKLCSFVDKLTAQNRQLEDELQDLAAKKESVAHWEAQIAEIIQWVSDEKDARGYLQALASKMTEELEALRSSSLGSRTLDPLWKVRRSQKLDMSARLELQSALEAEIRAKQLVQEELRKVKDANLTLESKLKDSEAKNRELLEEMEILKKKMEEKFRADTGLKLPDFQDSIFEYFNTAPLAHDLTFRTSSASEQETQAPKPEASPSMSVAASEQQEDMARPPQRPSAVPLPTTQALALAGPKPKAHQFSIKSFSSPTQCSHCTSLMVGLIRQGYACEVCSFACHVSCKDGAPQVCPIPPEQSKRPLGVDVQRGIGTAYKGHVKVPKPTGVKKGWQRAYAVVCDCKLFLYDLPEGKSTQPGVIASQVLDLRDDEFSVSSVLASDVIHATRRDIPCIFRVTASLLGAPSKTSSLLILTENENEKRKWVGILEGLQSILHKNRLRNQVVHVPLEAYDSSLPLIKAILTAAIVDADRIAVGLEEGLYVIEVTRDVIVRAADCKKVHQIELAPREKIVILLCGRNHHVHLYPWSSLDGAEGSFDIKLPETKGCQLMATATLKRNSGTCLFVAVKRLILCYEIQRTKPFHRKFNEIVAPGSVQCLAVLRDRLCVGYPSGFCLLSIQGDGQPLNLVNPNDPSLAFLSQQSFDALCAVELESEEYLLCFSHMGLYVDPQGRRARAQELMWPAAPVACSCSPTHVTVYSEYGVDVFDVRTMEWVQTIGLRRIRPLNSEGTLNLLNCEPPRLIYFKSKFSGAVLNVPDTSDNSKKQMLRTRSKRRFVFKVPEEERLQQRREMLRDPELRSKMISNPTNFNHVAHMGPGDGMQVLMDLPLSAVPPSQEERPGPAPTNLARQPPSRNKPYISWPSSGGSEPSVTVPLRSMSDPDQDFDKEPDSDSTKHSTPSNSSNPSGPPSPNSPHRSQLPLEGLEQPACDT
Sequence of CLK1 (human) (P49759 whole entry, looked up): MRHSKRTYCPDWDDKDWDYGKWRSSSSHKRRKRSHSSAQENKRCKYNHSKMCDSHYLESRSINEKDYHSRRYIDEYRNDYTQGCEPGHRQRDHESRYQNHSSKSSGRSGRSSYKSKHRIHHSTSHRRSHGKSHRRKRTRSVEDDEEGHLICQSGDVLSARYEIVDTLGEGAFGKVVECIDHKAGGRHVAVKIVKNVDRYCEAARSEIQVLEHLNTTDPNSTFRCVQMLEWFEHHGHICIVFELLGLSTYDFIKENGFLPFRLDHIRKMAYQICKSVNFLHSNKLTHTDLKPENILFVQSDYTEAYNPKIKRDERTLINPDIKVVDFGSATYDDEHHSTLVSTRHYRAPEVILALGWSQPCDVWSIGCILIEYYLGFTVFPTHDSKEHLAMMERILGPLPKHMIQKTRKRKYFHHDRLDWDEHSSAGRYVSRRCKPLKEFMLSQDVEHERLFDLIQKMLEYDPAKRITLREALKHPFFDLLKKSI
Sequence of HCK (human) (P08631 whole entry, looked up): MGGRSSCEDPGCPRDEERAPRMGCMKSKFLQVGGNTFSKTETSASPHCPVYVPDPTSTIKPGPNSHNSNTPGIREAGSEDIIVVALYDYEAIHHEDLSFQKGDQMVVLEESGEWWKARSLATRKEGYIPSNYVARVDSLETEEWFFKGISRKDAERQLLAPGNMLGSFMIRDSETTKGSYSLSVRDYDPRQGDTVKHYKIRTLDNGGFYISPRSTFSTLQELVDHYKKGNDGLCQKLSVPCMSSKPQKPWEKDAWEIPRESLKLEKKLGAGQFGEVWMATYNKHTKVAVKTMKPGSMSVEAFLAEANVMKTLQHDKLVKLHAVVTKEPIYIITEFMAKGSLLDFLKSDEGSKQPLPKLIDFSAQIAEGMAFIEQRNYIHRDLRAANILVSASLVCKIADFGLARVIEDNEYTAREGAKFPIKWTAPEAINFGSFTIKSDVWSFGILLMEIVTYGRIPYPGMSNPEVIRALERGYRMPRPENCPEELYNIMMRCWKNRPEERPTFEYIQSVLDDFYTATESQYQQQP
Sequence of NEK5 (human) (Q6P3R8 whole entry, looked up): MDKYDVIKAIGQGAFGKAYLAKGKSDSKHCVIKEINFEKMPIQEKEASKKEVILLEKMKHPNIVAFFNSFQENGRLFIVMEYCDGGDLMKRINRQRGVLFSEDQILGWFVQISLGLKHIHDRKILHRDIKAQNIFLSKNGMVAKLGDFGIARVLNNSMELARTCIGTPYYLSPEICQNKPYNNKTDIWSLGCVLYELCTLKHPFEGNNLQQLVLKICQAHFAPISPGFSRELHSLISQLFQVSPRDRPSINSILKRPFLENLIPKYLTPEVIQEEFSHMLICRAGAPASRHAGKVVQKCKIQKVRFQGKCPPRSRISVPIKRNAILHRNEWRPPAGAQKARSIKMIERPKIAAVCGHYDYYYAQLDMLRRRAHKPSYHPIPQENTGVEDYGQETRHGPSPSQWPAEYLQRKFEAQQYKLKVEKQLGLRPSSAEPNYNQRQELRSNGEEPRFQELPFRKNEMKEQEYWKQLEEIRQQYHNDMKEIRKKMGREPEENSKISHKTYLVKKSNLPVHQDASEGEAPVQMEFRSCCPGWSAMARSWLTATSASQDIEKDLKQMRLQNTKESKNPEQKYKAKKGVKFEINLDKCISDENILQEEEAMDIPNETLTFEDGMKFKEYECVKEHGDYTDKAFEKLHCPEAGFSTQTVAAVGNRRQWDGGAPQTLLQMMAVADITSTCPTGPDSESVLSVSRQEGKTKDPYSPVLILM

A pKd (STK25 (human)) of 4.72, a pKd (FYN (human)) of 6.89 and a pKd (INSRR (human)) of 4.51 were found for `COc1cc2ncnc(Oc3cccc(NC(=O)Nc4cc(C(C)(C)C(F)(F)F)on4)c3)c2cc1OC` in this work. It also gave a pKd (IKBKB (human)) of 6.02, a pKd (NTRK3 (human)) of 5.66 and a pKd (RAF1 (human)) of 7.41. For the same molecule, the pKd (HIPK2 (human)) was 6.00, the pKd (BMP2K (human)) was 4.48 and the pKd (PTK2B (human)) was 5.18. It also gave a pKd (AURKC (human)) of 5.00, a pKd (TESK1 (human)) of 4.42 and a pKd (EPHB3 (human)) of 5.42. For the same molecule, the pKd (NEK5 (human)) was 4.55, the pKd (RPS6KA6 KD2 (human)) was 5.19 and the pKd (PDGFRA (human)) was 8.27. The pKd [1] was 4.48, the pKd (CLK1 (human)) was 5.00 and the pKd (MINK1 (human)) was 6.44. It also gave a pKd (CDC42BPG (human)) of 5.36, a pKd [2] of 4.54 and a pKd (YES1 (human)) of 6.80. It also gave a pKd (ERN1 (human)) of 4.72, a pKd (EIF2AK2 (human)) of 4.47 and a pKd (IRAK1 (human)) of 5.02. It also gave a pKd (HCK (human)) of 7.89, a pKd (AURKB (human)) of 4.60 and a pKd (PRKD2 (human)) of 4.72. The pKd (TXK (human)) was 6.72, the pKd (TNK2 (human)) was 5.06 and the pKd (FGR (human)) was 6.96. For the same molecule, the pKd (FGFR3 (human)) was 5.48, the pKd (ADCK4 (human)) was 4.59 and the pKd (NLK (human)) was 6.57. The pKd (TAOK2 (human)) was 5.80, the pKd (TNNI3K (human)) was 7.55 and the pKd (LIMK2 (human)) was 5.42. For the same molecule, the pKd (PRKD3 (human)) was 5.20, the pKd (CDC42BPB (human)) was 5.70 and the pKd (MAP2K3 (human)) was 4.51. It also gave a pKd (CHEK2 (human)) of 5.06.
